Test results as given in article PMC5866846 (Archives of Toxicology, 2017).

What was measured:
[1] = system: upcyte hepatocytes 653-03; assay: Tam metabolism in upcyte hepatocytes 653-03 (parental), metabolites in culture medium; type: in vitro ADME, human; settings: 1 µM Tam, 653-03 cells
Procedure: (§1) The medium was replaced every 2–3 days. […].
(§2) The culture medium was collected after 24, 48, 72, 96 and 144 h followed by metabolite measurements using HPLC-ESI-MS/MS.
(§3) Protein was precipitated by the addition of ACN containing 1% of acetic acid and the corresponding deuterated internal standards to the same volume of the sample followed by centrifugation at 20.000 g for 15 min at RT. […] Analytes were separated on a Zorbax Eclipse Plus C18 column (1.8 µm, 100 × 2.1 mm, Agilent technologies) and detected on a 6460 triple quadrupole mass spectrometer (Agilent technologies) in positive ESI MRM mode. Glucuronides of estrogen-like metabolites were detected separately via MS/MS-measurements in negative ESI MRM mode.
(§4) […]. […] […].

[2] = system: upcyte hepatocytes 653-03 2D6; assay: Tam metabolism in upcyte hepatocytes 653-03 2D6, metabolites in culture medium; type: in vitro ADME, human
Procedure: as §1, §2, §3, §4

CYP1A2 = CYP1A2 activity in upcyte hepatocytes after treatment (probe substrate cocktail)
Procedure: (§5) Cells were cultivated in hepatocyte culture medium at 37 °C and 5 °% CO2 in a humidified incubator. Before starting experiments, cells were cultivated in hepatocyte culture medium containing 0.5% (v/v) DMSO (Preculture medium) for 5 days (density of 0.8 × 10^4 cells/cm^2) and were subcultivated in high-performance medium containing 0.1% (v/v) DMSO (Metabolism conditioning medium) for 3–5 days (density of 1.6 × 10^5 cells/cm^2, confluence). The medium was replaced every 2–3 days.
(§6) In HLM and supersome™ incubations the formation rate is given as nmol µg^−1 min^−1 and fmol pmol^−1 min^−1, respectively, and was calculated as the mean ± SD. […] The intrinsic Clearance (Clint) was given as Vmax/Km ratio. […] Activity of CYP enzymes in induction assays is given as the fold-change (mean ± SD) compared to the corresponding DMSO-treated control. […] Gene expression patterns of treated cells are given as fold-change compared to the corresponding DMSO-treated control samples, as described above. […] In induction and inhibition experiments corresponding EC50 and IC50 values were calculated by nonlinear regression. In all experiments a level of probability (p) ≤ 0.05 for statistical testing was considered significant.
(§7) As control 0.05 % DMSO was used. The basal CYP activity and induction of CYP activity compared to the DMSO control were measured via HPLC-ESI-MS/MS.

CYP2B6 = CYP2B6 activity in upcyte hepatocytes after treatment (probe substrate cocktail); settings: human, probe bupropion (25 µM)
Procedure: as §5, §6, §7

CYP3A4 = CYP3A4 activity in upcyte hepatocytes after treatment (probe substrate cocktail); settings: human, probe atorvastatin (35 µM), EC50 of induction of CYP3A4 activity, upcyte hepatocytes, 72 h, 50 pM to 5 µM
Procedure: as §5, §6, §7

[3] = system: CYP1A2, 2C19, 2C9, 2B6, 3A4 and 2C8; assay: CYP activity in upcyte hepatocytes after treatment, all tested CYP isoenzymes together; type: cell-based, human; settings: 5 µM, 72 h
Procedure: as §5, §6

CYP3A4 gene expression = CYP3A4 gene expression in upcyte hepatocytes (Fluidigm RT-PCR); settings: 5 µM, 72 h, both cell strains
Source text: (§8) Total RNA was isolated from cells using the Direct-zol™ RNA MiniPrep kit (Zymo Research Corp., Irvine, California). cDNA was synthesized using TaqMan Reverse Transcription Reagents (Life technologies, Applera GmbH, Darmstadt, Germany) and the expression of 25 genes representative of phase I and phase II drug metabolism and transport was quantified by Fluidigm’s BioMark HD high-throughput quantitative chip platform (Fluidigm Corporation, San Francisco, USA). For relative gene expression analysis, the delta-delta-Ct (ΔΔCt) method was used: the Ct values of the target mRNA were first normalized to those of the endogenous control glyceraldehyde-3-phosphate dehydrogenase (GAPDH) followed by dividing values of experimental samples by their corresponding DMSO-treated controls to calculate the x-fold changes of mRNA expression.
as §6, §7

CYP1A1 gene expression = CYP1A1 gene expression in upcyte hepatocytes (Fluidigm RT-PCR); type: cell-based, human; settings: 5 µM, 72 h, both cell strains
Source text: (§9) Differences between induced and control samples were compared using Welch’s t-test (GraphPad Prism, version 5.04), when the fold-change was considered biologically relevant (1.5-fold increase or decrease in fold-changes) and corrected for multiple testing according to Bonferroni. […] An unpaired t-test assuming unequal variances was used for testing of differences in the expression patterns, when the fold-change was considered biologically relevant (1.5-fold increase or decrease in fold-changes) and corrected using Bonferroni adjustments.

SLC10A1 gene expression = SLC10A1 gene expression in upcyte hepatocytes (Fluidigm RT-PCR); type: cell-based, human; settings: 5 µM, 72 h, both cell strains
Source text: as §9

ABCG2 gene expression = ABCG2 gene expression in upcyte hepatocytes (Fluidigm RT-PCR); type: cell-based, human; settings: 5 µM, 72 h, both cell strains
Source text: as §9

SLC22A7 gene expression = SLC22A7 gene expression in upcyte hepatocytes (Fluidigm RT-PCR); type: cell-based, human; settings: 5 µM, 72 h, both cell strains
Source text: as §8
In HLM and supersome™ incubations the formation rate is given as nmol µg^−1 min^−1 and fmol pmol^−1 min^−1, respectively, and was calculated as the mean ± SD. […] The intrinsic Clearance (Clint) was given as Vmax/Km ratio. […] In induction and inhibition experiments corresponding EC50 and IC50 values were calculated by nonlinear regression. […]
as §7

estrogen receptor = system: estrogen receptor; set-up: method as in Johnson et al. [1989]; Murphy et al. [1990]; settings: in vitro, estrogen-dependent breast cancer cell lines; ref Johnson et al. [1989]; Murphy et al. [1990]; cited from earlier work
CYP2C8 = biological target: T1, CYP2C8 (Homo sapiens, UniProt P10632); assay: CYP2C8 activity in upcyte hepatocytes after treatment (probe substrate cocktail); type: cell-based; set-up: host or cells: upcyte hepatocytes 653-03 and 653-03 #138 (653-03 2D6); settings: upcyte hepatocytes, 72 h, 50 pM to 5 µM; read-out: EC50 of induction of CYP2C8 activity
T1 sequence (P10632 1-490): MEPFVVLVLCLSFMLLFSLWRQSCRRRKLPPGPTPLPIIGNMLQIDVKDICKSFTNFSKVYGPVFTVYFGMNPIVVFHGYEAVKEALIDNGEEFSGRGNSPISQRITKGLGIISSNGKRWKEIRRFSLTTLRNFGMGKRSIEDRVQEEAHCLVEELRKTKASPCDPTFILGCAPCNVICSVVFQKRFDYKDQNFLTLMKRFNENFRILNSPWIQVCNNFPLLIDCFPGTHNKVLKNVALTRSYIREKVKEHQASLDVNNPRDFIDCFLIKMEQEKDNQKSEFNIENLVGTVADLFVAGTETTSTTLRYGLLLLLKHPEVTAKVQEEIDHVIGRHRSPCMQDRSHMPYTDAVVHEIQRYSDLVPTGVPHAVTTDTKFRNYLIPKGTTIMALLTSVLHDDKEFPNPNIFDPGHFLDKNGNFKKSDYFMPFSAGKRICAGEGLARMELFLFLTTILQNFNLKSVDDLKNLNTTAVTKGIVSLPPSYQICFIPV
Procedure: as §5, §6, §7

CYP2C9 = CYP2C9 (Homo sapiens, UniProt P11712); assay: CYP2C9 activity in upcyte hepatocytes after treatment (probe substrate cocktail); type: cell-based; set-up: host or cells: upcyte hepatocytes 653-03 and 653-03 #138 (653-03 2D6); settings: upcyte hepatocytes, 72 h, 50 pM to 5 µM; read-out: EC50 of induction of CYP2C9 activity
Sequence of CYP2C9 (P11712 whole entry): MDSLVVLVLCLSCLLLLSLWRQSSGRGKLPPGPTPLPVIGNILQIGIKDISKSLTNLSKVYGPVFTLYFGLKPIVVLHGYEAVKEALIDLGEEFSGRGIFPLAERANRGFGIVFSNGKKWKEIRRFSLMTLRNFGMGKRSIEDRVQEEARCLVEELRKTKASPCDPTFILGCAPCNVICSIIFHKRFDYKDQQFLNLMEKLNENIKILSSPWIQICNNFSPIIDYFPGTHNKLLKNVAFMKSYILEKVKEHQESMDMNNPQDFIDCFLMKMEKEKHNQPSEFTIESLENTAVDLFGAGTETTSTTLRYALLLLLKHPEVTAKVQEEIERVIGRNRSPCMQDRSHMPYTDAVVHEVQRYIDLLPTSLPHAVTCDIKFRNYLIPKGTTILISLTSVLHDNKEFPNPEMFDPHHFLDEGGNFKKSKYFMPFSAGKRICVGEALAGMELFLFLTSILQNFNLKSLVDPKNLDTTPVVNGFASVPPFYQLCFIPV
Procedure: as §5, §6, §7

CYP2C19 = CYP2C19 (Homo sapiens, UniProt P33261); assay: CYP2C19 activity in upcyte hepatocytes after treatment (probe substrate cocktail); type: cell-based; set-up: host or cells: upcyte hepatocytes 653-03 and 653-03 #138 (653-03 2D6); settings: upcyte hepatocytes, 72 h, 50 pM to 5 µM; read-out: EC50 of induction of CYP2C19 activity
Sequence of CYP2C19 (P33261 whole entry): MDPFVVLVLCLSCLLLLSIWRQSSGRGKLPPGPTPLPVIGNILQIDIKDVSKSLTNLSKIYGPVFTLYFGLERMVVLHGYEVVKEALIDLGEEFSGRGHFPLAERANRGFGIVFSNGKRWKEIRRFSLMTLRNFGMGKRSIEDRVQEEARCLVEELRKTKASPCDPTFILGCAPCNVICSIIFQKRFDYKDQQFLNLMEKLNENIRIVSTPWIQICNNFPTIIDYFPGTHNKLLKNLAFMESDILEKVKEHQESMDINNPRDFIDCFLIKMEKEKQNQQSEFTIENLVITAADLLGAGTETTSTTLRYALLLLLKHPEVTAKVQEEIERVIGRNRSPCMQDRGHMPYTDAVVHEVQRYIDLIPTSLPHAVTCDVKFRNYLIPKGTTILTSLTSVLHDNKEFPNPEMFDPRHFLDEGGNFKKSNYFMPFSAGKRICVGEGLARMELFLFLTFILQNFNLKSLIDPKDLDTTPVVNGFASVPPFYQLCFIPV
Procedure: as §5, §6, §7

SMILES: CCC(=C(c1ccc(O)cc1)c1ccc(O)cc1)c1ccccc1 [Tam-Bis, 4-[1-(4-hydroxyphenyl)-2-phenylbut-1-en-1-yl]phenol]
- concentration in the supernatant [1]: 0.0306 nM
- concentration in the supernatant ([2]; 1 µM Tam, 653-03 2D6 cells): up to 87.5 pM
- concentration in the supernatant of 653-03 2D6 cells relative to parental cells ([2]; cells incubated with 1 µM Tam up to 144 h): up to 4 times
- EC50 at 72 h (CYP1A2; human, EC50 of induction of CYP1A2 activity, 50 pM to 5 µM): > 0.4 µM
- EC50 (CYP1A2; read-out: EC50 of induction of CYP1A2 activity, 72 h, 50 pM to 5 µM): 0.518 µM
- EC50 at 72 h (CYP2B6): 0.187 µM
- EC50 at 72 h (CYP3A4): 0.178 µM
- inhibitory effect on the tested CYP enzymes [3]: no inhibitory effect
- CYP3A4 gene expression, induction vs DMSO control (CYP3A4 gene expression): up to 4.5 fold
- CYP3A4 gene expression, induction vs DMSO control (CYP3A4 gene expression; listed as tamoxifen bisphenol): up to 5.6 fold
- CYP1A1 gene expression, induction vs DMSO control (CYP1A1 gene expression): up to 4.5 fold
- SLC10A1 gene expression, downregulation (fold lower) (SLC10A1 gene expression): up to 2.5 fold
- ABCG2 gene expression, induction vs DMSO control (ABCG2 gene expression): up to 4.5 fold
- SLC22A7 gene expression, fold lower than DMSO control (SLC22A7 gene expression): up to 2.5 fold
- agonism regarding estrogen-regulated mRNA expression (estrogen receptor): full agonists
- EC50 (CYP2C8): 0.4 µM
- EC50 (CYP2C9): 0.488 µM
- EC50 (CYP2C19): 0.0305 µM
